From patent US20120083522A1, “MODULATION OF INFLAMMATORY RESPONSES BY FACTOR XI” (Isis Pharmaceuitcals, inc., priority 2009, published 2012) come the findings set out here.

Holding throughout (type): cell-based
Series [1] relates to human Factor XI mRNA. Put plainly: Dose-dependent inhibition and IC50 in HepG2 cells, electroporation (Example 15). In a few lines:
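HepG2 cells were electroporated with antisense oligonucleotide at 123.46, 370.37, 1,111.11, 3,333.33 and 10,000 nM and harvested after about 16 h. Factor XI mRNA was quantified by qRT-PCR (primer probe set RTS 2966), normalized to RIBOGREEN total RNA, and expressed as percent inhibition versus untreated cells.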

Series [2] deals with human Factor XI mRNA. Put plainly: Dose-dependent inhibition and IC50 in HepG2 cells, microwalk gapmers, electroporation (Example 16). As for the experimental part:
These gapmers were tested at various doses in HepG2 cells. Cells were plated at a density of 20,000 cells per well and transfected using electroporation with 375 nM, 750 nM, 1,500 nM, 3,000 nM, 6,000 nM and 12,000 nM concentrations of antisense oligonucleotide, as specified in Table 54. After a treatment period of approximately 16 hours, RNA was isolated from the cells and Factor XI mRNA levels were measured by quantitative real-time PCR. Human Factor XI primer probe set RTS 2966 was used to measure mRNA levels. Factor XI mRNA levels were adjusted according to total RNA content, as measured by RIBOGREEN. Results are presented as percent inhibition of Factor XI, relative to untreated control cells.
ISIS 416850, ISIS 416858, ISIS 445522, and ISIS 445531 (see Table 52 above) were re-tested in vitro along with the microwalk gapmers under the same conditions described above.
The chimeric antisense oligonucleotides in Table 53 were designed as 3-8-3 MOE, 4-8-4 MOE, 2-10-2 MOE, 3-10-3 MOE, or 4-10-4 MOE gapmers. The 3-8-3 gapmer is 14 nucleotides in length, wherein the central gap segment is comprised of eight 2′-deoxynucleotides and is flanked on both sides (in the 5′ and 3′ directions) by wings comprising three nucleotides each. The 4-8-4 gapmer is 16 nucleotides in length, wherein the central gap segment is comprised of eight 2′-deoxynucleotides and is flanked on both sides (in the 5′ and 3′ directions) by wings comprising four nucleotides each. The 2-10-2 gapmer is 14 nucleotides in length, wherein the central gap segment is comprised of ten 2′-deoxynucleotides and is flanked on both sides (in the 5′ and 3′ directions) by wings comprising two nucleotides each. The 3-10-3 gapmer is 16 nucleotides in length, wherein the central gap segment is comprised of ten 2′-deoxynucleotides and is flanked on both sides (in the 5′ and 3′ directions) by wings comprising three nucleotides each. The 4-10-4 gapmer is 18 nucleotides in length, wherein the central gap segment is comprised of ten 2′-deoxynucleotides and is flanked on both sides (in the 5′ and 3′ directions) by wings comprising four nucleotides each. For each of the motifs (3-8-3, 4-8-4, 2-10-2, 3-10-3, and 4-10-4), each nucleotide in the 5′ wing segment and each nucleotide in the 3′ wing segment has a 2′-MOE modification. The internucleoside linkages throughout each gapmer are phosphorothioate (P═S) linkages. All cytidine residues throughout each gapmer are 5-methylcytidines. “Human Target start site” indicates the 5′-most nucleotide to which the gapmer is targeted in the human sequence. “Human Target stop site” indicates the 3′-most nucleotide to which the gapmer is targeted in the human sequence. Each gapmer listed in Table 53 is targeted to SEQ ID NO: 1 (GENBANK Accession No. NM_000128.3). Each gapmer is Table 53 is also fully cross-reactive with the rhesus monkey Factor XI gene sequence, designated herein as SEQ ID NO: 274 (exons 1-15 GENBANK Accession No. NW—001118167.1). ‘Rhesus monkey start site’ indicates the 5′-most nucleotide to which the gapmer is targeted in the rhesus monkey sequence. ‘Rhesus monkey stop site’ indicates the 3′-most nucleotide to which the gapmer is targeted to the rhesus monkey sequence.
The first two listed gapmers in Table 54 are the original gapmers (ISIS 416850 and ISIS 416858) from which the remaining gapmers were designed via microwalk and are designated by an asterisk.

Series [3] has as its system human Factor XI mRNA. Put plainly: Dose-dependent inhibition in HepB3 cells, electroporation (Example 7). Particulars: approx. 16 h. As for the experimental part:
The gapmers were also transfected via electroporation and their dose dependent inhibition of human Factor XI mRNA was measured. Cells were plated at a density of 20,000 cells per well and transfected via electroporation with 41.15 nM, 123.457 nM, 370.37 nM, 1111.11 nM, 3333.33 nM, and 10,000 nM concentrations of antisense oligonucleotide, as specified in Table 15. After a treatment period of approximately 16 hours, RNA was isolated from the cells and human Factor XI mRNA levels were measured by quantitative real-time PCR. Human Factor XI primer probe set RTS 2966 was used to measure mRNA levels. Factor XI mRNA levels were adjusted according to total RNA content, as measured by RIBOGREEN®. Results are presented as percent inhibition of human Factor XI, relative to untreated control cells.

Consider “416858 (antisense ACGGCATTGGTGCACAGTTT; 5-10-5 gapmer, wing sugar chemistry not given here, further chemistry not given here) [compound 416858]”, for which the “percent inhibition of Factor XI mRNA” value in the series on human Factor XI mRNA [1] (electroporation, 123.47 nM) came out at 0%; in the series with human Factor XI mRNA [1] (electroporation, 370.37 nM) it was 27%; with human Factor XI mRNA [1] (electroporation, 1,111.11 nM), 36%; in the series with human Factor XI mRNA [1] (electroporation, 3,333.33 nM), 64%; with human Factor XI mRNA [1] (electroporation, 10,000.0 nM), 70%; with human Factor XI mRNA [2] (electroporation, 375 nM), 31%. Besides, the “percent inhibition of Factor XI mRNA” value in the series on human Factor XI mRNA [2] (electroporation, 750 nM) turned out to be 35%; with human Factor XI mRNA [2] (electroporation, 1,500 nM), 78%; in the series with human Factor XI mRNA [2] (electroporation, 3,000 nM), 85%; in the series with human Factor XI mRNA [2] (electroporation, 6,000 nM) it was 90%; in the series on human Factor XI mRNA [2] (electroporation, 12,000 nM), 93%. In addition, the “percent inhibition of human Factor XI mRNA” value was determined as 23% in the series with human Factor XI mRNA [3] (41.15 nM); 45% in the series with human Factor XI mRNA [3] (123.457 nM); 52% in the series on human Factor XI mRNA [3] (370.37 nM); 64% with human Factor XI mRNA [3] (1111.11 nM); 87% in the series with human Factor XI mRNA [3] (3333.33 nM); 92% in the series with human Factor XI mRNA [3] (10000 nM).
